Test results from PubChem BioAssay (NCI).
“And” between values parts separate entries of the source, which are not always exact repeats. Equal values may be shown once.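 Results reflect a 48-hour exposure of cells in 96-well plates to compound at five concentrations. The concentration for 50% growth inhibition is given as GI50. TGI: total growth inhibition.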

Legend:
Assay in all cases: inhibition of tumour cell growth, NCI panel, 48 h
HL-60(TB) leukemia = test system: HL-60(TB) leukemia
HS 578T breast = test system: HS 578T breast
LOX IMVI melanoma = test system: LOX IMVI melanoma
MDA-MB-435 = test system: MDA-MB-435
OVCAR-8 ovarian = test system: OVCAR-8 ovarian
RPMI-8226 leukemia = test system: RPMI-8226 leukemia
RXF 393 renal = test system: RXF 393 renal
SF-295 CNS = test system: SF-295 CNS
SK-MEL-28 melanoma = test system: SK-MEL-28 melanoma
TK-10 renal = test system: TK-10 renal

| Structure (SMILES) | GI50 (HL-60(TB) leukemia) | TGI (HL-60(TB) leukemia) | GI50 (HS 578T breast) | TGI (HS 578T breast) [µM] | GI50 (LOX IMVI melanoma) | TGI (LOX IMVI melanoma) [µM] | GI50 (MDA-MB-435) | TGI (MDA-MB-435) [µM] | GI50 (OVCAR-8 ovarian) | TGI (OVCAR-8 ovarian) | GI50 (RPMI-8226 leukemia) | TGI (RPMI-8226 leukemia) | GI50 (RXF 393 renal) [µM] | TGI (RXF 393 renal) [µM] | GI50 (SF-295 CNS) | TGI (SF-295 CNS) [µM] | GI50 (SK-MEL-28 melanoma) | TGI (SK-MEL-28 melanoma) [µM] | GI50 (TK-10 renal) | TGI (TK-10 renal) [µM] |
| --- | --- | --- | --- | --- | --- | --- | --- | --- | --- | --- | --- | --- | --- | --- | --- | --- | --- | --- | --- | --- |
| OCC1OC(N2C=C(c3nc4ccccc4s3)C3C=CC=CC32)C(O)C1O (centres undefined) | 21 µM | > 50 µM | 14.2 µM | > 50 | 7.1 µM | 18 | 12 µM | 24.5 | 11.4 µM | 29.5 µM | 7.57 µM | 21.8 µM | 10.6 | 25.9 | 13.1 µM | 43.6 | 10.8 µM | 27.8 | 6.65 µM | 21.9 |
| CCOC(=O)/C(C1=CC(=O)C(=O)c2ccccc21)=C(/C)NCc1ccccc1 | 0.453 µM | 2.25 µM | 2.54 µM | 6.96 | 1.15 µM | 2.36 | 0.226 µM | 0.476 | 3.69 µM | 9.5 µM | 0.184 µM | 0.432 µM | 0.186 | 1.73 | 1.76 µM | 3.68 | 3.02 µM | 7.32 | 1.72 µM | 3.51 |
| OCCCNCc1ccccn1 |  | > 100 µM |  | > 100 |  | > 100 |  | > 100 |  | > 100 µM |  | > 100 µM |  | > 100 |  | > 100 |  | > 100 |  | > 100 |
| CCN(CC)CC(C)Nc1ccc(C)c2sc3ccccc3c(=O)c12 (centres undefined) | 1.62 µM | 5.24 µM | 2.29 µM | 9 | 1.52 µM | 3.99 | 3.37 µM | 11.9 | 6.86 µM | 25.3 µM | 2.32 µM | 6.81 µM |  | 1.97 | 2.66 µM | 8.56 | 1.73 µM | 3.41 | 4.83 µM | 17.6 |
| COc1ccc(N=Cc2ccc(N(CCC#N)CCC#N)cc2)cc1 |  | > 100 µM |  | > 100 |  | > 100 |  | > 100 |  | > 100 µM |  | > 100 µM |  | > 100 |  | > 100 |  | > 100 |  | > 89 |
| Nc1ncnc2c1ncn2C1OC(C(=O)O)C(O)C1O (centres undefined) |  | > 100 µM |  | > 100 |  | > 100 |  | > 100 |  | > 100 µM |  | > 100 µM |  | > 100 |  | > 100 |  | > 100 |  | > 100 |
| Nc1ccc2c(c1)[O][Sn]([c]1ccccc1)([c]1ccccc1)[O]C2=O | 2.64 µM | 10.4 µM | 4.06 µM | 22.2 | 3.57 µM | 11.5 | 6.78 µM | 17.3 | 13.2 µM | 28.2 µM | 2.5 µM | 10.7 µM | 2.06 | 6.09 | 6.38 µM | 14.5 | 5.02 µM | 12.4 | 7.34 µM | 15.6 |
| CCc1ccc(C2=C(O)C(=O)C(c3ccc(CC)cc3)=C(O)C2=O)cc1 | 2.6 µM | 6.24 µM | 1.72 µM | 6.58 | 2.84 µM | 12.1 | 1.89 µM | 6.72 | 2.95 µM | 10.2 µM | 1.81 µM | 6.43 µM | 3.34 | 12.8 | 1.93 µM | 6.7 | 2.65 µM | 8.89 | 2.26 µM | 8.61 |
| C=C(CNCCO)[C@@H]1CC[C@]2(CO)CC[C@]3(C)[C@H](CC[C@@H]4[C@@]5(C)CCC(NCCc6ccc(O)cc6)C(C)(C)[C@@H]5CC[C@]43C)[C@@H]12 (some centres undefined) | 2 µM | 4.08 µM | 1.49 µM | 3.7 | 1.18 µM | 2.63 | 1.51 µM | 2.9 | 1.46 µM | 2.8 µM | 1.02 µM | 3.13 µM | 1.08 | 2.39 | 1.51 µM | 2.96 | 1.6 µM | 3.1 | 1.66 µM | 3.1 |
| COC(=O)c1ccc2c(c1)c1c(C)c3cnccc3c(C)c1n2C | 0.243 µM | 1.05 µM | 0.108 µM | 0.584 | 0.0391 µM | 0.194 | 0.0585 µM | 1.09 | 0.0595 µM | 3.79 µM | 0.0475 µM | 0.409 µM | 0.0512 | 0.286 | 0.0652 µM | 0.558 | 0.0951 µM | 0.444 | 0.277 µM | 3.35 |
| ClCCn1cnc2c(SCc3ccccc3)ncnc21 | 4.68 µM | 68.3 µM | 15.4 µM | > 100 | 0.534 µM | 18.6 | 3.47 µM | > 100 | 1.18 µM | > 100 µM | 0.73 µM | 35.5 µM | 11.4 | 63.5 | 3.12 µM | > 100 | 10.9 µM | > 100 | 0.924 µM | > 100 |
| OC1CCC(Oc2cccc3cnc(Nc4ccc5nc[nH]c5c4)nc23)CC1 (centres undefined) | 0.155 µM | 0.447 µM | 0.728 µM | 8.32 | 0.231 µM | 11.4 | 0.612 µM | 12.1 | 0.521 µM | 43 µM | 0.219 µM | 0.659 µM | 0.208 | 0.504 | 0.429 µM | 12 | 0.791 µM | 6.83 | 0.296 µM | 11.4 |
| N#C/C(=C(\O)C(=O)O)c1ccc(-c2cccc3ccccc23)cc1 |  | 81.9 µM |  | > 100 |  | > 100 |  | > 100 |  | > 100 µM |  | > 100 µM |  | > 100 |  | > 100 |  | > 100 |  | > 100 |
| CCOC(=O)/C=C/c1ccc(C(=O)OCC)[nH]1 | 1.62 µM | 9.89 µM | 2.43 µM | 22.3 | 5.29 µM | > 100 | 0.393 µM | 2.29 | 5.82 µM | > 100 µM | 5.32 µM | > 100 µM | 9.59 | 46.9 | 3.5 µM | 41.2 | 33.7 µM | > 100 | 6.05 µM | > 100 |
| O=C(/C=C/c1ccc([N+](=O)[O-])o1)NNC(=O)c1cc2ccccc2cc1O | 0.962 µM | > 100 µM | 6.21 µM | > 100 | 0.395 µM | 1.98 | 0.644 µM |  | 1.11 µM | 20.1 µM | 2.3 µM | > 100 µM | 0.236 | 0.94 | 7.62 µM | > 100 | 0.596 µM | 2.21 | 2.9 µM | > 100 |
| Cc1cc(O)cc(C)c1/C=C/c1cncc(C(=O)N(C)C)c1 | > 25 µM | > 25 µM | > 25 µM | > 25 | > 25 µM | > 25 | > 25 µM | > 25 | > 25 µM | > 25 µM | > 25 µM | > 25 µM | > 25 | > 25 | > 14.8 µM | > 25 | > 25 µM | > 25 | > 25 µM | > 25 |
| CN(C)CN1C(=O)S/C(=C2\C(=O)N(CN(C)C)c3ccccc32)C1=O |  | 37.2 µM |  | > 100 |  | 73.2 |  | > 100 |  | > 100 µM |  | 54.8 µM |  | 75 |  | > 100 |  | > 100 |  | > 100 |
| CC[C@@]1(OC(=O)CCC(=O)O)C(=O)OCc2c1cc1n(c2=O)Cc2cc3ccccc3nc2-1 |  | 0.449 µM |  | > 100 |  | 0.596 |  | 3.22 |  | 9.38 µM |  | 3.87 µM |  | 1.53 |  | 1.78 |  | > 46.1 |  | 57.5 |
| O=C1/C(=C\c2cccs2)Oc2ccccc21 |  | > 100 µM |  | > 100 |  | > 100 |  | > 100 |  | > 100 µM |  | > 100 µM |  | > 100 |  | > 100 |  | > 100 |  | > 100 |
| COc1ccc([N+](=O)[O-])c2c(NCC(O)CO)ccnc12 (centres undefined) |  | > 100 µM |  | > 100 |  | > 100 |  | > 100 |  | > 100 µM |  | > 100 µM |  | > 100 |  | > 100 |  | > 100 |  | > 100 |
| O=[N+]([O-])/C=C\c1ccc2c(c1)OCO2 | 10.2 µM | 46.5 µM | 3.47 µM | 19.9 | 1.83 µM | 4.15 | 2.16 µM |  | 2.86 µM | 10.4 µM | 1.77 µM | 5.07 µM | 1.66 | 3.1 | 11.5 µM | 26.5 | 4.7 µM | 16.4 | 3.16 µM | 10 |
| CC1(C)C(=O)/C(=C\c2ccco2)C[C@]2(C)[C@H]3CC=C4[C@@H]5C[C@](C)(C(=O)O)CC[C@]5(C)CC[C@@]4(C)[C@]3(C)CC[C@@H]12 | 6.78 µM | 27.2 µM | 18.4 µM | > 100 | 9.56 µM | 22.2 | 12.1 µM | 30.3 | 6 µM | 42.4 µM | 4.2 µM | 47.9 µM | 10.7 | 22.7 | 7.06 µM | 24.6 | 15.1 µM | 31.1 | 13.1 µM | 36.7 |
| O=C(O)C(Cc1ccc(O)c([N+](=O)[O-])c1)N1C(=O)c2ccccc2C1=O (centres undefined) |  | 47 µM |  | > 100 |  | > 100 |  | > 100 |  | > 100 µM |  | > 100 µM |  | > 100 |  | > 100 |  | > 100 |  | > 100 |
| Cc1ccc2c(c1)sc(-c1ccc(N(C)C)cc1)[n+]2C | 0.273 µM | 10.5 µM | 6.39 µM | > 87.7 | 1.28 µM | 21.8 | 0.879 µM | 13 | 1.41 µM | 34.8 µM | 0.13 µM | 5.15 µM | 9.16 | > 47.4 | 0.72 µM | > 22.8 | 3.3 µM | 20.9 | 1.99 µM | 11.2 |
| Cn1cnc([N+](=O)[O-])c1Sc1ncnc2nc[nH]c12 | 11 µM and 16.9 µM | 71 µM and > 64.7 µM | 4.8 µM and 3.86 µM | > 100 | 1.11 µM and 1.63 µM | > 100 | 2.68 µM and 4.37 µM | > 100 | 3.68 µM and > 26.6 µM | > 100 µM | 3.18 µM and 1.55 µM | > 100 µM | 35.2 | > 100 | 1.61 µM and 9.82 µM | > 100 | 37.8 µM and 40.2 µM | > 100 | 3.58 µM and 3.93 µM | > 100 |
| CCCCS(=N)(=O)CC[C@H](N)C(=O)O (some centres undefined) | 32.9 µM | 1270 µM and 224 µM | > 8500 µM | > 10000 | 2.12 µM |  | > 10000 µM | > 10000 |  | 2920 µM and > 2770 µM | > 8560 µM | 4730 µM and > 10000 µM | > 10000 | > 10000 |  | > 10000 | > 10000 µM | > 10000 | > 10000 µM | > 10000 |
